Experimental data taken from article PMC5218480 (PLoS ONE, 2017).

Test system: MV-4-11 cells
Experiment: Gene expression microarray analysis (Affymetrix PrimeView) and GSEA
Assay type: cell-based, human
Parameters: RFU PODN (11730768_x_at) / Fold change /veh PODN (11730768_x_at) / RFU LINC00158 (11744669_a_at) / Fold change /veh LINC00158 (11744669_a_at) / RFU DUSP10 (11751237_a_at) / Fold change /veh DUSP10 (11751237_a_at) / RFU ID3 (11757404_x_at) / Fold change /veh ID3 (11757404_x_at) / RFU PLEKHG5 (11737974_s_at) / Fold change /veh PLEKHG5 (11737974_s_at) / RFU LRRC4B (11730491_at) / Fold change /veh LRRC4B (11730491_at) / RFU GIMAP4 (11747438_a_at) / Fold change /veh GIMAP4 (11747438_a_at) / RFU KRT8 (11758183_x_at) / Fold change /veh KRT8 (11758183_x_at) / RFU CNN1 (11734310_a_at) / Fold change /veh CNN1 (11734310_a_at) / RFU VPS37D (11726825_at) / Fold change /veh VPS37D (11726825_at) / RFU C10orf10 (11716522_x_at) / Fold change /veh C10orf10 (11716522_x_at) / RFU KIR2DL2 /// KIR2DL4 /// KIR2DL5A /// KIR2DL5B /// KIR2DS1 /// KIR2DS2 /// KIR2DS3 /// KIR2DS4 /// KIR3DL3 /// KIR3DL3 /// KIR3DS1 (11738374_at) / Fold change /veh KIR2DL2 /// KIR2DL4 /// KIR2DL5A /// KIR2DL5B /// KIR2DS1 /// KIR2DS2 /// KIR2DS3 /// KIR2DS4 /// KIR3DL3 /// KIR3DL3 /// KIR3DS1 (11738374_at) / RFU C1QL1 (11718748_at) / Fold change /veh C1QL1 (11718748_at) / RFU TMPRSS4 (11747572_a_at) / Fold change /veh TMPRSS4 (11747572_a_at) / RFU HAMP (11756126_x_at) / Fold change /veh HAMP (11756126_x_at) / RFU RNFT2 (11725882_a_at) / Fold change /veh RNFT2 (11725882_a_at) / RFU NR4A2 (11747474_a_at) / Fold change /veh NR4A2 (11747474_a_at) / RFU ABCC12 (11746883_a_at) / Fold change /veh ABCC12 (11746883_a_at) / RFU TMEM136 (11760407_x_at) / Fold change /veh TMEM136 (11760407_x_at) / RFU CLDN22 /// WWC2 (11732394_at) / Fold change /veh CLDN22 /// WWC2 (11732394_at) / RFU HLA-DPB1 (11760878_x_at) / Fold change /veh HLA-DPB1 (11760878_x_at) / RFU SPINT1 (11716480_a_at) / Fold change /veh SPINT1 (11716480_a_at) / RFU GAP43 (11754022_s_at) / Fold change /veh GAP43 (11754022_s_at) / RFU A4GNT (11735810_at) / Fold change /veh A4GNT (11735810_at) / RFU PRB3 (11715151_x_at) / Fold change /veh PRB3 (11715151_x_at) / RFU TUBB4B (11761932_at) / Fold change /veh TUBB4B (11761932_at) / RFU CAPN14 (11732068_a_at) / Fold change /veh CAPN14 (11732068_a_at) / RFU TMCC2 (11721928_a_at) / Fold change /veh TMCC2 (11721928_a_at) / RFU IRGQ (11745062_a_at) / Fold change /veh IRGQ (11745062_a_at) / RFU FAM174B (11720279_a_at) / Fold change /veh FAM174B (11720279_a_at) / RFU TMPRSS4 (11748680_a_at) / Fold change /veh TMPRSS4 (11748680_a_at) / RFU FAM212B (11763350_a_at) / Fold change /veh FAM212B (11763350_a_at) / RFU PLEKHG5 (11743358_a_at) / Fold change /veh PLEKHG5 (11743358_a_at) / RFU ZSCAN30 (11745921_a_at) / Fold change /veh ZSCAN30 (11745921_a_at) / RFU CMKLR1 (11741424_a_at) / Fold change /veh CMKLR1 (11741424_a_at) / RFU LOC101060620 /// MAPK8IP1 (11723275_at) / Fold change /veh LOC101060620 /// MAPK8IP1 (11723275_at) / RFU SPTSSB (11747773_x_at) / Fold change /veh SPTSSB (11747773_x_at) / RFU PRSS12 (11739890_at) / Fold change /veh PRSS12 (11739890_at) / RFU BIN1 (11741810_x_at) / Fold change /veh BIN1 (11741810_x_at) / RFU WNT11 (11732464_a_at) / Fold change /veh WNT11 (11732464_a_at) / RFU C10orf10 (11716521_a_at) / Fold change /veh C10orf10 (11716521_a_at) / RFU C5orf56 (11738089_at) / Fold change /veh C5orf56 (11738089_at) / RFU CYB561 (11721691_x_at) / Fold change /veh CYB561 (11721691_x_at) / RFU ANKRD19P (11752326_a_at) / Fold change /veh ANKRD19P (11752326_a_at) / RFU OR2T12 /// OR2T33 /// OR2T8 (11738714_s_at) / Fold change /veh OR2T12 /// OR2T33 /// OR2T8 (11738714_s_at) / RFU VCAN (11748164_a_at) / Fold change /veh VCAN (11748164_a_at) / RFU JSRP1 (11732532_at) / Fold change /veh JSRP1 (11732532_at) / RFU KRTAP10-11 (11738290_x_at) / Fold change /veh KRTAP10-11 (11738290_x_at) / RFU MYO3A (11730013_a_at) / Fold change /veh MYO3A (11730013_a_at) / RFU EBF3 (11725865_a_at) / Fold change /veh EBF3 (11725865_a_at) / RFU CAMK2N1 (11719241_x_at) / Fold change /veh CAMK2N1 (11719241_x_at) / RFU C5orf56 (11738088_a_at) / Fold change /veh C5orf56 (11738088_a_at) / RFU OLFML3 (11715873_a_at) / Fold change /veh OLFML3 (11715873_a_at) / RFU LOC100653217 /// NTM (11731650_a_at) / Fold change /veh LOC100653217 /// NTM (11731650_a_at) / RFU MAPK11 (11762145_a_at) / Fold change /veh MAPK11 (11762145_a_at) / RFU FIZ1 (11724087_x_at) / Fold change /veh FIZ1 (11724087_x_at) / RFU OASL (11726364_x_at) / Fold change /veh OASL (11726364_x_at) / RFU SOX15 (11748057_x_at) / Fold change /veh SOX15 (11748057_x_at) / RFU CD79A (11719716_a_at) / Fold change /veh CD79A (11719716_a_at) / RFU HIST1H1D (11736915_at) / Fold change /veh HIST1H1D (11736915_at) / RFU CASKIN2 (11723855_a_at) / Fold change /veh CASKIN2 (11723855_a_at) / RFU LOC730098 (11760151_x_at) / Fold change /veh LOC730098 (11760151_x_at) / RFU OR4N2 (11742367_at) / Fold change /veh OR4N2 (11742367_at) / RFU PRRT2 (11749266_a_at) / Fold change /veh PRRT2 (11749266_a_at) / RFU SNX32 (11753110_a_at) / Fold change /veh SNX32 (11753110_a_at) / RFU CDHR5 (11726645_a_at) / Fold change /veh CDHR5 (11726645_a_at) / RFU RCAN1 (11760418_a_at) / Fold change /veh RCAN1 (11760418_a_at) / RFU FAM167A (11723789_a_at) / Fold change /veh FAM167A (11723789_a_at) / RFU FAM26E (11764081_at) / Fold change /veh FAM26E (11764081_at) / RFU ISYNA1 (11749810_s_at) / Fold change /veh ISYNA1 (11749810_s_at) / RFU ACY1 (11761880_at) / Fold change /veh ACY1 (11761880_at) / RFU 11764098_at / Fold change /veh 11764098_at / RFU SAMD14 (11745864_x_at) / Fold change /veh SAMD14 (11745864_x_at) / RFU NPB (11741838_a_at) / Fold change /veh NPB (11741838_a_at) / RFU TMPRSS6 (11731388_a_at) / Fold change /veh TMPRSS6 (11731388_a_at) / RFU KRTAP10-2 (11738614_at) / Fold change /veh KRTAP10-2 (11738614_at) / RFU ARHGAP8 /// PRR5-ARHGAP8 (11727945_x_at) / Fold change /veh ARHGAP8 /// PRR5-ARHGAP8 (11727945_x_at) / RFU KRTAP5-7 /// NADSYN1 (11734609_at) / Fold change /veh KRTAP5-7 /// NADSYN1 (11734609_at) / RFU RASL12 (11751679_a_at) / Fold change /veh RASL12 (11751679_a_at) / RFU CDKN2B (11736163_a_at) / Fold change /veh CDKN2B (11736163_a_at) / RFU PRF1 (11729649_at) / Fold change /veh PRF1 (11729649_at) / RFU, ZNF638 /// ZNF638-IT1 / Fold change vs veh, ZNF638 /// ZNF638-IT1 / RFU, PANK3 / Fold change vs veh, PANK3 / RFU, SH3YL1 / Fold change vs veh, SH3YL1 / RFU, ZEB2 / Fold change vs veh, ZEB2 / RFU, NRIP1 / Fold change vs veh, NRIP1 / RFU, PTTG1IP / Fold change vs veh, PTTG1IP / RFU, CAPN2 / Fold change vs veh, CAPN2 / RFU, MED14 / Fold change vs veh, MED14 / RFU, SNORA58 / Fold change vs veh, SNORA58 / RFU, C1orf63 / Fold change vs veh, C1orf63 / RFU, LRRFIP1 / Fold change vs veh, LRRFIP1 / RFU, NDUFAF7 / Fold change vs veh, NDUFAF7 / RFU, SLC12A2 / Fold change vs veh, SLC12A2 / RFU, IBTK / Fold change vs veh, IBTK / RFU, ESF1 / Fold change vs veh, ESF1 / Fold change vs veh, TMEM50B / RFU, TAOK1 / Fold change vs veh, TAOK1 / RFU, ACBD3 / Fold change vs veh, ACBD3 / RFU, TMA16 / Fold change vs veh, TMA16 / RFU, RWDD3 / Fold change vs veh, RWDD3 / RFU, BCAT1 / Fold change vs veh, BCAT1 / RFU, EDEM3 / Fold change vs veh, EDEM3 / RFU, TMEM33 / Fold change vs veh, TMEM33 / RFU, WDR75 / Fold change vs veh, WDR75 / RFU, AHCTF1 / Fold change vs veh, AHCTF1 / RFU, TFRC / Fold change vs veh, TFRC / RFU, ZDHHC17 / Fold change vs veh, ZDHHC17 / RFU, NOM1 / Fold change vs veh, NOM1 / RFU, ARL8B / Fold change vs veh, ARL8B / RFU, ZBTB11 / Fold change vs veh, ZBTB11 / RFU, TAMM41 / Fold change vs veh, TAMM41 / RFU, KIAA1704 /// LOC100996395 / Fold change vs veh, KIAA1704 /// LOC100996395 / RFU, ING1 / Fold change vs veh, ING1 / RFU, TRMT61B / Fold change vs veh, TRMT61B / RFU, FUBP3 / Fold change vs veh, FUBP3 / RFU, TP53 / Fold change vs veh, TP53 / RFU, TNKS2 / Fold change vs veh, TNKS2 / RFU, ZFP14 / Fold change vs veh, ZFP14 / RFU, ACTR2 / Fold change vs veh, ACTR2 / RFU, PPP3R1 / Fold change vs veh, PPP3R1 / RFU, PIK3R1 / Fold change vs veh, PIK3R1 / RFU, HNRNPA1 / Fold change vs veh, HNRNPA1 / RFU, RNF170 / Fold change vs veh, RNF170 / RFU, ZNF28 / Fold change vs veh, ZNF28 / RFU, RNGTT / Fold change vs veh, RNGTT / RFU, OGT / Fold change vs veh, OGT / RFU, BRD1 / Fold change vs veh, BRD1 / RFU, MARS / Fold change vs veh, MARS / RFU, ZNF655 / Fold change vs veh, ZNF655 / RFU, FAHD1 / Fold change vs veh, FAHD1 / RFU, BDP1 / Fold change vs veh, BDP1 / RFU, LRRCC1 / Fold change vs veh, LRRCC1 / RFU, ARID1A / Fold change vs veh, ARID1A / RFU, ZNF146 / Fold change vs veh, ZNF146 / RFU, ZNF330 / Fold change vs veh, ZNF330 / RFU, GPN3 / Fold change vs veh, GPN3 / RFU, C9orf123 / Fold change vs veh, C9orf123 / RFU, N4BP2L2 / Fold change vs veh, N4BP2L2 / RFU, ARFIP1 / Fold change vs veh, ARFIP1 / RFU, FAM179B / Fold change vs veh, FAM179B / RFU, BCL10 / Fold change vs veh, BCL10 / RFU, UHRF1BP1L / Fold change vs veh, UHRF1BP1L / RFU, BET1 / Fold change vs veh, BET1 / RFU, CNOT2 / Fold change vs veh, CNOT2 / RFU, ZNF268 / Fold change vs veh, ZNF268 / Fold change vs veh, ZNF507 / RFU, DGCR2 / Fold change vs veh, DGCR2 / RFU, WDSUB1 / Fold change vs veh, WDSUB1 / Fold change vs veh, HSP90B1 /// MIR3652 / RFU, ADSS / Fold change vs veh, ADSS / RFU, GK / Fold change vs veh, GK / RFU, ZNF148 / Fold change vs veh, ZNF148 / RFU, TAF9 / Fold change vs veh, TAF9 / RFU, SLC1A5 / Fold change vs veh, SLC1A5 / RFU, SLMO2 / Fold change vs veh, SLMO2 / RFU, ABCC4 / Fold change vs veh, ABCC4 / RFU, LOC101060439 /// RAP1B / Fold change vs veh, LOC101060439 /// RAP1B / RFU, RFX7 / Fold change vs veh, RFX7 / RFU, GTPBP10 / Fold change vs veh, GTPBP10 / RFU, CNEP1R1 / Fold change vs veh, CNEP1R1 / RFU, BIVM-ERCC5 /// ERCC5 / Fold change vs veh, BIVM-ERCC5 /// ERCC5 / RFU, ILF3 / Fold change vs veh, ILF3 / RFU 11762660_at / Fold change /veh 11762660_at / RFU VCAN (11757783_s_at) / Fold change /veh VCAN (11757783_s_at) / RFU DDX43 (11728927_at) / Fold change /veh DDX43 (11728927_at) / RFU KRT8 (11758188_x_at) / Fold change /veh KRT8 (11758188_x_at) / RFU NKD1 (11759106_at) / Fold change /veh NKD1 (11759106_at) / RFU SRD5A1 (11742802_a_at) / Fold change /veh SRD5A1 (11742802_a_at) / RFU TPSAB1 /// TPSB2 (11721975_s_at) / Fold change /veh TPSAB1 /// TPSB2 (11721975_s_at) / RFU GSTM3 (11746129_a_at) / Fold change /veh GSTM3 (11746129_a_at) / RFU IL23R (11737362_x_at) / Fold change /veh IL23R (11737362_x_at) / RFU TMEM51 (11727254_a_at) / Fold change /veh TMEM51 (11727254_a_at) / RFU PIWIL2 (11732686_x_at) / Fold change /veh PIWIL2 (11732686_x_at) / RFU ORM1 (11744905_x_at) / Fold change /veh ORM1 (11744905_x_at) / RFU CCDC152 (11743942_at) / Fold change /veh CCDC152 (11743942_at) / RFU ECM1 (11717891_a_at) / Fold change /veh ECM1 (11717891_a_at) / RFU IL23R (11748794_a_at) / Fold change /veh IL23R (11748794_a_at) / RFU TNFAIP8L3 (11732012_x_at) / Fold change /veh TNFAIP8L3 (11732012_x_at) / RFU MBOAT4 (11741988_at) / Fold change /veh MBOAT4 (11741988_at) / RFU 11764193_at / Fold change /veh 11764193_at / RFU TMEM53 (11763286_at) / Fold change /veh TMEM53 (11763286_at) / RFU MAGEB2 (11727129_at) / Fold change /veh MAGEB2 (11727129_at) / RFU TMEM200A (11744735_a_at) / Fold change /veh TMEM200A (11744735_a_at) / RFU CCDC152 (11751479_a_at) / Fold change /veh CCDC152 (11751479_a_at) / RFU FAM211A (11726209_a_at) / Fold change /veh FAM211A (11726209_a_at) / RFU RGS16 (11746705_a_at) / Fold change /veh RGS16 (11746705_a_at) / RFU VCAN (11755009_s_at) / Fold change /veh VCAN (11755009_s_at) / RFU RHOB (11743442_s_at) / Fold change /veh RHOB (11743442_s_at) / RFU RGS16 (11720943_a_at) / Fold change /veh RGS16 (11720943_a_at) / RFU RGS16 (11720944_at) / Fold change /veh RGS16 (11720944_at) / RFU, VPS4B / Fold change vs veh, VPS4B / RFU, CREB1 / Fold change vs veh, CREB1 / RFU, DNAJC13 / Fold change vs veh, DNAJC13 / RFU, GNAQ / Fold change vs veh, GNAQ / RFU, CDK5R1 / Fold change vs veh, CDK5R1 / RFU, ZRANB3 / Fold change vs veh, ZRANB3 / RFU, CUL4A / Fold change vs veh, CUL4A / RFU, CCNY / Fold change vs veh, CCNY / RFU, UFL1 / Fold change vs veh, UFL1 / RFU, COG3 / Fold change vs veh, COG3 / RFU, DIAPH2 / Fold change vs veh, DIAPH2 / RFU, SKA2 / Fold change vs veh, SKA2 / RFU, AFF3 / Fold change vs veh, AFF3 / RFU, LMF1 / Fold change vs veh, LMF1 / RFU, IPO11 / Fold change vs veh, IPO11 / RFU, DFFB / Fold change vs veh, DFFB / RFU, FOXP1 / Fold change vs veh, FOXP1 / RFU, CARD8 / Fold change vs veh, CARD8 / RFU, STRN3 / Fold change vs veh, STRN3 / RFU, ADK / Fold change vs veh, ADK / RFU, RASSF2 / Fold change vs veh, RASSF2 / RFU, WIPF1 / Fold change vs veh, WIPF1 / RFU, LARP1B / Fold change vs veh, LARP1B / RFU, RASA1 / Fold change vs veh, RASA1 / RFU, RB1 / Fold change vs veh, RB1 / RFU, PPFIA1 / Fold change vs veh, PPFIA1 / RFU, MAT2A / Fold change vs veh, MAT2A / RFU, CCT5 / Fold change vs veh, CCT5 / RFU, WDR92 / Fold change vs veh, WDR92 / RFU, CUX1 / Fold change vs veh, CUX1 / RFU, TTC7A / Fold change vs veh, TTC7A / RFU, TMEM135 / Fold change vs veh, TMEM135 / RFU, DEPTOR / Fold change vs veh, DEPTOR / RFU, CPM / Fold change vs veh, CPM / RFU, DNAJB6 / Fold change vs veh, DNAJB6 / RFU, CACNA2D3 / Fold change vs veh, CACNA2D3 / RFU, DTX4 / Fold change vs veh, DTX4 / RFU, TFCP2 / Fold change vs veh, TFCP2 / RFU, GMCL1 /// GMCL1P1 / Fold change vs veh, GMCL1 /// GMCL1P1 / RFU, AEBP2 / Fold change vs veh, AEBP2 / RFU, SNHG1 /// SNORD22 /// SNORD25 /// SNORD26 /// SNORD27 /// SNORD28 /// SNORD29 /// SNORD31 / Fold change vs veh, SNHG1 /// SNORD22 /// SNORD25 /// SNORD26 /// SNORD27 /// SNORD28 /// SNORD29 /// SNORD31 / Fold change (Aza/veh), C12orf56 (ProbeSet 11735607_a_at) / Fold change (ACY-1035/veh), C12orf56 (ProbeSet 11735607_a_at) / Fold change (Aza/veh), FGFR1OP (ProbeSet 11751329_s_at) / Fold change (ACY-1035/veh), FGFR1OP (ProbeSet 11751329_s_at) / Fold change (Aza/veh), VPS36 (ProbeSet 11739960_a_at) / Fold change (ACY-1035/veh), VPS36 (ProbeSet 11739960_a_at) / RFU SYPL1 (11715823_x_at) / Fold change /veh SYPL1 (11715823_x_at) / RFU IGFBP7 (11715501_s_at) / Fold change /veh IGFBP7 (11715501_s_at) / RFU REEP3 (11722064_at) / Fold change /veh REEP3 (11722064_at) / RFU IGLL1 (11728026_x_at) / Fold change /veh IGLL1 (11728026_x_at): dose or concentration left out as unconfirmed
Details: MV-4-11 cells, 48 hours

Nc1ncn([C@@H]2O[C@H](CO)[C@@H](O)[C@H]2O)c(=O)n1 [azacitidine]
Fold change /veh KRTAP10-2 (11738614_at): 0.93
